The compounds below were run against T1, mAChR M1 (UniProt P11229) (assay: mAChR M1 cell-based functional assay (calcium mobilization, potentiation of EC20 acetylcholine response)). Conditions: % ACh maximum at 30 μM; mAChR M1-expressing CHO-K1 cells, calcium flux.
T1 sequence (P11229 1-460): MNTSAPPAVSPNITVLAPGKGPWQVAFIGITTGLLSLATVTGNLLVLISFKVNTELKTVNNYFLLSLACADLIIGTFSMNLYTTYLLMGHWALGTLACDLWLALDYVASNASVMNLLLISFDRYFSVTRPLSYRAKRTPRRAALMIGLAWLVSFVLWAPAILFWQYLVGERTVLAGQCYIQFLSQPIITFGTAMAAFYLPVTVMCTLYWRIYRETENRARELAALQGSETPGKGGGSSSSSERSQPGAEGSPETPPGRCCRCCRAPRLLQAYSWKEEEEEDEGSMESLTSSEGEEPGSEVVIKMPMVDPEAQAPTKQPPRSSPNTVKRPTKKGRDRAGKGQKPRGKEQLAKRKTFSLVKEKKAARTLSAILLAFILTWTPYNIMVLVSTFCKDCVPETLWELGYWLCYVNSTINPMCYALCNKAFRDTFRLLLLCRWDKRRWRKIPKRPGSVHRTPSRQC
Description: Chinese hamster ovary (CHO-K1) cells stably expressing rat (r)M1 were purchased from the American Type Culture Collection and cultured according to their indicated protocol. […] To make stable rM2, hM2, rM3, hM4, and rM4 cell lines for use in calcium mobilization assays, these cells also were stably transfected with a chimeric G-protein (Gqi5) (provided by B. R. Conklin, University of California, San Francisco) using Lipofectamine 2000. rM1, hM1, rM3, hM3, rM5, and hM5 cells were grown in Ham's F-12 medium containing 10% heat-inactivated fetal bovine serum (FBS), 20 mM HEPES, and 50 μg/mL G418 sulfate. rM2-Gqi5, hM2-Gqi5, and hM4-Gqi5 cells were grown in the same medium also containing 500 μg/mL Hygromycin B. Stable rM4-Gqi5 cells were grown in DMEM containing 10% heat-inactivated FBS, 20 mM HEPES, 400 μg/mL G418 sulfate, and 500 μg/mL Hygromycin B.
For high throughput measurement of agonist-evoked increases in intracellular calcium, CHO-K1 cells stably expressing muscarinic receptors were plated in growth medium lacking G418 and hygromycin at 15,000 cells/20 μL/well in Greiner 384-well black-walled, tissue culture (TC)-treated, clear-bottom plates (VWR). Cells were incubated overnight at 37° C. and 5% CO2. […] Compound master plates were formatted in an 11 point CRC format (1:3 dilutions) in 100% DMSO with a starting concentration of 10 mM using the BRAVO liquid handler (Agilent). Test compound CRCs were then transferred to daughter plates (240 nL) using the Echo acoustic plate reformatter (Labcyte, Sunnyvale, Calif.) and then diluted into assay buffer (40 μL) to a 2× stock using a Thermo Fisher Combi (Thermo Fisher Scientific, Waltham, Mass.).
Calcium flux was measured using the Functional Drug Screening System (FDSS) 6000 (Hamamatsu Corporation, Tokyo, Japan) as an increase in the fluorescent static ratio. Compounds were applied to cells (20 μL, 2×) using the automated system of the FDSS 6000 at 4 s into the 300 s protocol and the data were collected at 1 Hz. […] Agonist activity was analyzed as a concentration-dependent increase in calcium mobilization upon compound addition. Positive allosteric modulator activity was analyzed as a concentration-dependent increase in the EC20 acetylcholine response. Antagonist activity was analyzed as a concentration-dependent decrease in the EC80 acetylcholine response. Concentration-response curves were generated using a four-parameter logistical equation in XLfit curve fitting software (IDBS, Bridgewater, N.J.) for Excel (Microsoft, Redmond, Wash.) or Prism (GraphPad Software, Inc., San Diego, Calif.).
The above described assay was also operated in a second mode where an appropriate fixed concentration of the present compounds were added to the cells after establishment of a fluorescence baseline for about 3 seconds, and the response in cells was measured. […] Data were reduced as described above and the EC50 values for the agonist in the presence of test compound were determined by nonlinear curve fitting. A decrease in the EC50 value of the agonist with increasing concentrations of the present compounds (a leftward shift of the agonist concentration-response curve) is an indication of the degree of muscarinic positive allosteric modulation at a given concentration of the present compound. An increase in the EC50 value of the agonist with increasing concentrations of the present compounds (a rightward shift of the agonist concentration response curve) is an indication of the degree of muscarinic antagonism at a given concentration of the present compound. The second mode also indicates whether the present compounds also affect the maximum response of the muscarinic receptor to agonists.
The calcium mobilization assay was also used to determine “efficacy”.

| SMILES | Emax (%) |
| --- | --- |
| O=C1c2ncccc2CN1Cc1ccc(-c2cccnc2)cc1Cl [Example B67] | 56 |
| O=C1c2ncccc2CN1Cc1ccc(-c2ccc3ccncc3c2)cc1F [Example B70] | 59 |
| Cn1cc2cc(-c3ccc(CN4Cc5cccnc5C4=O)c(F)c3)ccc2n1 [Example B71] | 72 |
| COc1ccc(-c2ccc(CN3Cc4cccnc4C3=O)c(Cl)c2)cc1 [Example B76] | 35 |
| O=C1c2ncccc2CN1Cc1ccc(-c2cccc3ncccc23)cc1F [Example B77] | 42 |
| CN(C)c1ccc(-c2ccc(CN3Cc4cccnc4C3=O)c(F)c2)cn1 [Example B78] | 48 |
| O=C1c2ncccc2CN1Cc1ccc(-c2ccc3cnccc3c2)cc1F [Example B79] | 62 |
| Cn1cc2c(-c3cc(F)c(CN4Cc5ncccc5C4=O)c(F)c3)cccc2n1 [Example B81] | 80 |
| Cn1cnc2ccc(-c3cc(F)c(CN4Cc5ncccc5C4=O)c(F)c3)cc21 [Example B82] | 72 |
| Cc1cc(-c2cnc(Cl)c(C)c2)ccc1CN1Cc2cccnc2C1=O [Example B83] | 34 |
| Cc1cc(-c2cccnc2)ccc1CN1Cc2cccnc2C1=O [Example B85] | 41 |

The remaining lines, values ahead:

| Emax (%) | SMILES |
| --- | --- |
| 56 | O=C1c2ncccc2CN1Cc1ccc(-c2ccncc2)cc1F [Example B65] |
| 52 | O=C1c2ncccc2CN1Cc1ccc(-c2cnc3ccccc3c2)cc1F [Example B66] |
| 56 | O=C1c2ncccc2CN1Cc1ccc(-c2ccncc2)cc1Cl [Example B68] |
| 52 | O=C1c2ncccc2CN1Cc1ccc(-c2ccc3cnccc3c2)cc1Cl [Example B69] |
| 79 | Cn1cc2ccc(-c3ccc(CN4Cc5cccnc5C4=O)c(F)c3)cc2n1 [Example B72] |
| 38 | O=C1c2ncccc2CN1Cc1ccc(-c2cncc(Cl)c2)cc1F [Example B73] |
| 58 | CN(C)c1ccc(-c2ccc(CN3Cc4cccnc4C3=O)c(Cl)c2)cn1 [Example B74] |
| 42 | Cc1cc(-c2ccc(CN3Cc4cccnc4C3=O)c(Cl)c2)cnc1Cl [Example B75] |
| 57 | O=C1c2cccnc2CN1Cc1c(F)cc(-c2ccc3nccn3c2)cc1F [Example B80] |
| 41 | Cc1cc(-c2ccncc2)ccc1CN1Cc2cccnc2C1=O [Example B84] |

Same assay, conditions: positive allosteric modulation of EC20 ACh response, mAChR M1 CHO-K1 cells; <5 estimated where no plateau

| SMILES | pEC50 |
| --- | --- |
| O=C1c2ncccc2CN1Cc1ccc(-c2cccnc2)cc1Cl [Example B67] | 5.28 |
| O=C1c2ncccc2CN1Cc1ccc(-c2ccc3ccncc3c2)cc1F [Example B70] | 5.68 |
| Cn1cc2cc(-c3ccc(CN4Cc5cccnc5C4=O)c(F)c3)ccc2n1 [Example B71] | 6.15 |
| COc1ccc(-c2ccc(CN3Cc4cccnc4C3=O)c(Cl)c2)cc1 [Example B76] | 5.83 |
| O=C1c2ncccc2CN1Cc1ccc(-c2cccc3ncccc23)cc1F [Example B77] | 5.74 |
| CN(C)c1ccc(-c2ccc(CN3Cc4cccnc4C3=O)c(F)c2)cn1 [Example B78] | 5.90 |
| O=C1c2ncccc2CN1Cc1ccc(-c2ccc3cnccc3c2)cc1F [Example B79] | 5.83 |
| Cn1cc2c(-c3cc(F)c(CN4Cc5ncccc5C4=O)c(F)c3)cccc2n1 [Example B81] | 6.80 |
| Cn1cnc2ccc(-c3cc(F)c(CN4Cc5ncccc5C4=O)c(F)c3)cc21 [Example B82] | 6.40 |
| Cc1cc(-c2cnc(Cl)c(C)c2)ccc1CN1Cc2cccnc2C1=O [Example B83] | <5.00 |
| Cc1cc(-c2cccnc2)ccc1CN1Cc2cccnc2C1=O [Example B85] | <5.00 |

Now from value to compound:

| pEC50 | SMILES |
| --- | --- |
| <5.00 | O=C1c2ncccc2CN1Cc1ccc(-c2ccncc2)cc1F [Example B65] |
| 5.84 | O=C1c2ncccc2CN1Cc1ccc(-c2cnc3ccccc3c2)cc1F [Example B66] |
| <5.00 | O=C1c2ncccc2CN1Cc1ccc(-c2ccncc2)cc1Cl [Example B68] |
| 5.87 | O=C1c2ncccc2CN1Cc1ccc(-c2ccc3cnccc3c2)cc1Cl [Example B69] |
| 5.70 | Cn1cc2ccc(-c3ccc(CN4Cc5cccnc5C4=O)c(F)c3)cc2n1 [Example B72] |
| <5.00 | O=C1c2ncccc2CN1Cc1ccc(-c2cncc(Cl)c2)cc1F [Example B73] |
| 5.73 | CN(C)c1ccc(-c2ccc(CN3Cc4cccnc4C3=O)c(Cl)c2)cn1 [Example B74] |
| 5.70 | Cc1cc(-c2ccc(CN3Cc4cccnc4C3=O)c(Cl)c2)cnc1Cl [Example B75] |
| 6.07 | O=C1c2cccnc2CN1Cc1c(F)cc(-c2ccc3nccn3c2)cc1F [Example B80] |
| <5.00 | Cc1cc(-c2ccncc2)ccc1CN1Cc2cccnc2C1=O [Example B84] |

Same assay, conditions: positive allosteric modulation of EC20 ACh response, mAChR M1 CHO-K1 cells; >10 μM estimated where no plateau; read-out: EC50

| SMILES | EC50 [nM] |
| --- | --- |
| O=C1c2ncccc2CN1Cc1ccc(-c2cccnc2)cc1Cl [Example B67] | 5250 |
| O=C1c2ncccc2CN1Cc1ccc(-c2ccc3ccncc3c2)cc1F [Example B70] | 2090 |
| Cn1cc2cc(-c3ccc(CN4Cc5cccnc5C4=O)c(F)c3)ccc2n1 [Example B71] | 708 |
| COc1ccc(-c2ccc(CN3Cc4cccnc4C3=O)c(Cl)c2)cc1 [Example B76] | 1480 |
| O=C1c2ncccc2CN1Cc1ccc(-c2cccc3ncccc23)cc1F [Example B77] | 1820 |
| CN(C)c1ccc(-c2ccc(CN3Cc4cccnc4C3=O)c(F)c2)cn1 [Example B78] | 1260 |
| O=C1c2ncccc2CN1Cc1ccc(-c2ccc3cnccc3c2)cc1F [Example B79] | 1480 |
| Cn1cc2c(-c3cc(F)c(CN4Cc5ncccc5C4=O)c(F)c3)cccc2n1 [Example B81] | 158 |
| Cn1cnc2ccc(-c3cc(F)c(CN4Cc5ncccc5C4=O)c(F)c3)cc21 [Example B82] | 398 |
| Cc1cc(-c2cnc(Cl)c(C)c2)ccc1CN1Cc2cccnc2C1=O [Example B83] | > 10000 |
| Cc1cc(-c2cccnc2)ccc1CN1Cc2cccnc2C1=O [Example B85] | > 10000 |

The remaining lines, values ahead:

| EC50 [nM] | SMILES |
| --- | --- |
| > 10000 | O=C1c2ncccc2CN1Cc1ccc(-c2ccncc2)cc1F [Example B65] |
| 1440 | O=C1c2ncccc2CN1Cc1ccc(-c2cnc3ccccc3c2)cc1F [Example B66] |
| > 10000 | O=C1c2ncccc2CN1Cc1ccc(-c2ccncc2)cc1Cl [Example B68] |
| 1350 | O=C1c2ncccc2CN1Cc1ccc(-c2ccc3cnccc3c2)cc1Cl [Example B69] |
| 2000 | Cn1cc2ccc(-c3ccc(CN4Cc5cccnc5C4=O)c(F)c3)cc2n1 [Example B72] |
| > 10000 | O=C1c2ncccc2CN1Cc1ccc(-c2cncc(Cl)c2)cc1F [Example B73] |
| 1860 | CN(C)c1ccc(-c2ccc(CN3Cc4cccnc4C3=O)c(Cl)c2)cn1 [Example B74] |
| 2000 | Cc1cc(-c2ccc(CN3Cc4cccnc4C3=O)c(Cl)c2)cnc1Cl [Example B75] |
| 851 | O=C1c2cccnc2CN1Cc1c(F)cc(-c2ccc3nccn3c2)cc1F [Example B80] |
| > 10000 | Cc1cc(-c2ccncc2)ccc1CN1Cc2cccnc2C1=O [Example B84] |
